Where two headings read alike, the source gives them in different places. Marks after values point to notes of the source that are not given here.
Assays:
[1] = test system: Remefline-induced convulsion; assay: Anticonvulsant effects on Remefline-induced convulsion in mice; format: in vivo
Description: In one experiment, the anticonvulsant effects of levo- and dextro-ornidazole against drug-induced convulsions in mice were compared. In four different animal convulsion models, mice were treated by four different seizure-inducing agents, including Remefline, Strychnine, isoniazid, thiosemicarbazide. Levo- or dextro-ornidazole was administered along with the seizure-inducing agents, and several outcomes were measured, including rate of convulsion, mortality rate, time to convulsion (latency), and time to death. Diazepam was used as a positive anticonvulsant control.
Mice are randomized into 4 treatment groups (n=10 with half male and half female): dextro- or levo-ornidazole (dosage 40, 80, 160 mg/kg), vehicle control group (15% propylene glycol in 0.9% sodium chloride, 20 mL/kg) and the positive control group. Animals are treated with known convulsion-inducing agents, followed by the drug or vehicle control given intravenously. The dose volume is 20 mL/kg with an infusion rate of 0.2 mL/10 seconds.

[2] = test system: Strychnine-induced convulsion; assay: Anticonvulsant effects on Strychnine-induced convulsion in mice; format: in vivo; settings: n=10; for Convulsion Latency: Mean ± SD
Description: (§1) Mice are randomized into 4 treatment groups (n=10 with half male and half female): dextro- or levo-ornidazole (dosage 40, 80, 160 mg/kg), vehicle control group (15% propylene glycol in 0.9% sodium chloride, 20 mL/kg) and the positive control group. Animals are treated with known convulsion-inducing agents, followed by the drug or vehicle control given intravenously. The dose volume is 20 mL/kg with an infusion rate of 0.2 mL/10 seconds. The anticonvulsant effects are observed and recorded (see Tables 2-6).

[3] = test system: thiosemicarbazide-induced convulsion; assay: Anticonvulsant effects on thiosemicarbazide-induced convulsion in mice; format: in vivo; settings: n=10; for Convulsion Latency / Time to Death: Mean ± SD; for Mortality Rate / Rate of Convulsion: 160 mg/kg i.v.
Description: as §1

[4] = test system: glutamate; assay: Effects on excitatory neurotransmitter glutamate levels in mice brain; format: in vivo
From the text: In another experiment, the effects on excitatory neurotransmitter levels by levo- and dextro-ornidazole were compared.

[5] = Acute toxicity in mice (LD50); settings: mouse, in vivo
[6] = Phase II clinical trial, oral tablets, departments of obstetrics/gynecology, adverse events; format: in vivo, human; settings: human, in vivo, po
Description: Double-blinded randomized controlled trials were carried out to compare the adverse events of oral levo-ornidazole with racemate treatment groups. Two separate studies were conducted for patients with infections from either department of stomatology or obstetrics/gynecology.

[7] = test system: spontaneous activities of mice; settings: both, mouse, in vivo, iv
Description: Mice weighing 18-22 g, half male and half female, were placed in the laboratory 24 hours before the test to adapt to the environment. The room temperature was controlled at 24±2° C. Animals were fasted for 8 hours before testing, and then placed in a transparent cage. The number of spontaneous activities of mice was counted by an automatic device (model XZ-4 by Drug Research Institute of China Academy of Medical Sciences). Mice were pre-screened by counting their spontaneous activities for five minutes and unqualified mice were excluded. A total of 110 mice were selected and divided into 11 groups with 10 mice in each group.
Chlorpromazine (3 mg/kg) was used as the positive control. The dose volume was 0.2 mL/10 gram and infusion rate was 0.2 mL/10 seconds.

[8] = test system: Purkinje cells; settings: dog, in vivo, 200 mg/kg
Description: Male and female Beagle dogs were kept in laboratory conditions for 1 week to observe general health conditions. […] Animals were treated at dose of I.V. 200 mg/kg for ornidazole enantiomers, or 10 mL/kg for vehicle control for 2 weeks, then sacrificed for anatomical and pathological examinations.
Quantitative data were analyzed by group test and qualitative data by simplified direct probability method. A 10×10 area under low magnification was used to count cerebellar Purkinje cells.

[9] = rat, in vivo
[10] = test system: plasma protein

## Cc1ncc([N+](=O)[O-])n1C[C@H](O)CCl [L-ornidazole, S-(−)-ornidazole]
[1]; 40 mg/kg i.v., n=10
  Mortality Rate: 10/10
  Rate of Convulsion: 10/10
[1]; 80 mg/kg i.v., n=10
  Rate of Convulsion: 10/10^#
[1]; 80 mg/kg i.v., n=10, listed as Levo-ornidazole, 80 mg/kg
  Mortality Rate: 10/10^##
[1]; 80 mg/kg i.v., n=10, listed as levo-ornidazole, 80 mg/kg
  Mortality Rate: 10/10
[1]; 160 mg/kg i.v., n=10
  Mortality Rate: 1/10**
  Rate of Convulsion: 9/10^##
[2]; 40 mg/kg i.v.
  Convulsion Latency: 5.3 ± 2.3 min
  Mortality Rate: 10/10
[2]; 80 mg/kg i.v.
  Convulsion Latency: 7.5 ± 3.3 min
  Mortality Rate: 10/10
[2]; 160 mg/kg i.v.
  Convulsion Latency: 8.6 ± 2.3 min
  Mortality Rate: 6/10^#
[3]; 40 mg/kg i.v.
  Convulsion Latency: 77.1 ± 16.8 min
  Time to Death: 122.6 ± 29.8 min
[3]; 80 mg/kg i.v.
  Convulsion Latency: 85.0 ± 30.9 min
  Time to Death: 116.7 ± 38.7 min
[3]
  Mortality Rate: 9/10^##
  Rate of Convulsion: 9/10^##
[4]; FIG. 4, listed as Levo-ornidazole
  Effect on glutamate levels in cerebrum and cerebellum: little effect
[4]; FIG. 4, listed as levo-ornidazole
  Effect on glutamate levels in cerebrum and cerebellum: little effects
[5]; intravenous injection
  LD50: 332 mg/kg
[5]; ip, intraperitoneal injection
  LD50: 1380 mg/kg
[5]; oral gavage
  LD50: 1070 mg/kg
[6]
  Abdominal pain, # of Patients with AE: 0
  Abdominal pain, Incidence (%): 0.00%
  Appetite drop, # of Patients with AE: 0
  Appetite drop, Incidence (%): 0.00%
  Bitter taste, # of Patients with AE: 0
  Bitter taste, Incidence (%): 0.00%
  Bloating, # of Patients with AE: 0
  Bloating, Incidence (%): 0.00%
  Blurred vision, # of Patients with AE: 0
  Blurred vision, Incidence (%): 0.00%
  Breast tenderness, # of Patients with AE: 0
  Breast tenderness, Incidence (%): 0.00%
  Chest tightness, # of Patients with AE: 0
  Chest tightness, Incidence (%): 0.00%
  Dazzle, # of Patients with AE: 0
  Dazzle, Incidence (%): 0.00%
  Diarrhea, # of Patients with AE: 0
  Diarrhea, Incidence (%): 0.00%
  Dizziness, # of Patients with AE: 0
  Dizziness, Incidence (%): 0.00%
  Dry mouth, # of Patients with AE: 0
  Dry mouth, Incidence (%): 0.00%
  Headache, # of Patients with AE: 0
  Headache, Incidence (%): 0.00%
  Hypersomnia, # of Patients with AE: 0
  Hypersomnia, Incidence (%): 0.00^## %
  Hypodynamia, # of Patients with AE: 0
  Hypodynamia, Incidence (%): 0.00%
  Nausea, # of Patients with AE: 1
  Nausea, Incidence (%): 0.70^# %
  Oral malodor, # of Patients with AE: 1
  Oral malodor, Incidence (%): 0.70%
  Patients with adverse events (total): 5 patients
  Rash, # of Patients with AE: 1
  Rash, Incidence (%): 0.70%
  Stomach ache, # of Patients with AE: 1
  Stomach ache, Incidence (%): 0.70%
  Stomach discomfort, # of Patients with AE: 1
  Stomach discomfort, Incidence (%): 0.70%
  Total incidence rate of adverse events: 3.50%
  Vertigo, # of Patients with AE: 0
  Vertigo, Incidence (%): 0.00^## %
  Vomiting, # of Patients with AE: 0
  Vomiting, Incidence (%): 0.00%
[7]; 40 mg/kg, 0.5 h
  Spontaneous Activities (per 5 min): 89 ± 48 per 5 min
[7]; 40 mg/kg, 1 h
  Spontaneous Activities (per 5 min): 75 ± 40 per 5 min
[7]; 40 mg/kg, 2 h
  Spontaneous Activities (per 5 min): 69 ± 29 per 5 min
[7]; 40 mg/kg, 3 h
  Spontaneous Activities (per 5 min): 63 ± 16 per 5 min
[7]; 40 mg/kg, 4 h
  Spontaneous Activities (per 5 min): 87 ± 43 per 5 min
[7]; 80 mg/kg, 0.5 h
  Spontaneous Activities (per 5 min): 59 ± 27 per 5 min
[7]; 80 mg/kg, 1 h
  Spontaneous Activities (per 5 min): 47 ± 30 per 5 min
[7]; 80 mg/kg, 2 h
  Spontaneous Activities (per 5 min): 44 ± 25 per 5 min
[7]; 80 mg/kg, 3 h
  Spontaneous Activities (per 5 min): 58 ± 36 per 5 min
[7]; 80 mg/kg, 4 h
  Spontaneous Activities (per 5 min): 64 ± 36 per 5 min
[7]; 160 mg/kg, 0.5 h
  Spontaneous Activities (per 5 min): 40 ± 31 per 5 min
[7]; 160 mg/kg, 1 h
  Spontaneous Activities (per 5 min): 45 ± 25 per 5 min
[7]; 160 mg/kg, 2 h
  Spontaneous Activities (per 5 min): 38 ± 18 per 5 min
[7]; 160 mg/kg, 3 h
  Spontaneous Activities (per 5 min): 53 ± 23 per 5 min
[7]; 160 mg/kg, 4 h
  Spontaneous Activities (per 5 min): 58 ± 26 per 5 min
[8]
  Purkinje cell morphology: did not cause significant change
[9]
  Distribution in different region of brain, levo- vs dextro-ornidazole: Similar
[10]
  Plasma protein binding, levo- vs dextro-ornidazole: Similar

## Cc1ncc([N+](=O)[O-])n1C[C@@H](O)CCl [D-ornidazole, R-(+)-ornidazole]
[1]; 40 mg/kg i.v., n=10
  Mortality Rate: 10/10
  Rate of Convulsion: 10/10
[1]; 80 mg/kg i.v., n=10
  Rate of Convulsion: 5/10*
[1]; 80 mg/kg i.v., n=10, listed as Dextro-ornidazole, 80 mg/kg
  Mortality Rate: 0/10**
[1]; 80 mg/kg i.v., n=10, listed as dextro-ornidazole, 80 mg/kg
  Mortality Rate: 0/10
[1]; 160 mg/kg i.v., n=10
  Mortality Rate: 0/10**
  Rate of Convulsion: 0/10**
[2]; 40 mg/kg i.v.
  Convulsion Latency: 6.0 ± 0.7 min
  Mortality Rate: 10/10
[2]; 80 mg/kg i.v.
  Convulsion Latency: 8.0 ± 2.0 min
  Mortality Rate: 7/10
[2]; 160 mg/kg i.v.
  Convulsion Latency: 9.1 ± 2.6 min
  Mortality Rate: 1/10**
[3]; 40 mg/kg i.v.
  Convulsion Latency: 94.3 ± 25.1 min
  Time to Death: 153.9 ± 43.7 min
[3]; 80 mg/kg i.v.
  Convulsion Latency: 121.8 ± 16.8 min
  Time to Death: 213.6 ± 56.5 min
[3]
  Mortality Rate: 2/10**
  Rate of Convulsion: 3/10**
[4]; FIG. 4
  Effect on glutamate levels in cerebrum and cerebellum: significantly decreased
[7]; 40 mg/kg, 0.5 h
  Spontaneous Activities (per 5 min): 52 ± 23 per 5 min
[7]; 40 mg/kg, 1 h
  Spontaneous Activities (per 5 min): 44 ± 19 per 5 min
[7]; 40 mg/kg, 2 h
  Spontaneous Activities (per 5 min): 35 ± 20 per 5 min
[7]; 40 mg/kg, 3 h
  Spontaneous Activities (per 5 min): 47 ± 33 per 5 min
[7]; 40 mg/kg, 4 h
  Spontaneous Activities (per 5 min): 62 ± 31 per 5 min
[7]; 80 mg/kg, 0.5 h
  Spontaneous Activities (per 5 min): 25 ± 15 per 5 min
[7]; 80 mg/kg, 1 h
  Spontaneous Activities (per 5 min): 16 ± 21 per 5 min
[7]; 80 mg/kg, 2 h
  Spontaneous Activities (per 5 min): 17 ± 15 per 5 min
[7]; 80 mg/kg, 3 h
  Spontaneous Activities (per 5 min): 27 ± 17 per 5 min
[7]; 80 mg/kg, 4 h
  Spontaneous Activities (per 5 min): 34 ± 17 per 5 min
[7]; 160 mg/kg, 0.5 h
  Spontaneous Activities (per 5 min): 0 ± 0 per 5 min
[7]; 160 mg/kg, 1 h
  Spontaneous Activities (per 5 min): 0 ± 0 per 5 min
[7]; 160 mg/kg, 2 h
  Spontaneous Activities (per 5 min): 0 ± 0 per 5 min
[7]; 160 mg/kg, 3 h
  Spontaneous Activities (per 5 min): 3 ± 3 per 5 min
[7]; 160 mg/kg, 4 h
  Spontaneous Activities (per 5 min): 5 ± 5 per 5 min
[8]
  Purkinje cell morphology: Purkinje cell denaturing and morphology change
[9]
  Distribution in different region of brain, levo- vs dextro-ornidazole: Similar
[10]
  Plasma protein binding, levo- vs dextro-ornidazole: Similar
